Biological target: T1, human glucagon receptor (Homo sapiens, UniProt P47871)
T1 construct: expressed in transfected cells; host or cells: CHO-K1 cells, stably transfected
Assay: Glucagon cAMP assay (Cisbio cAMP detection); note: 100 pM glucagon challenge
Format: cell-based

T1 sequence (P47871 26-477): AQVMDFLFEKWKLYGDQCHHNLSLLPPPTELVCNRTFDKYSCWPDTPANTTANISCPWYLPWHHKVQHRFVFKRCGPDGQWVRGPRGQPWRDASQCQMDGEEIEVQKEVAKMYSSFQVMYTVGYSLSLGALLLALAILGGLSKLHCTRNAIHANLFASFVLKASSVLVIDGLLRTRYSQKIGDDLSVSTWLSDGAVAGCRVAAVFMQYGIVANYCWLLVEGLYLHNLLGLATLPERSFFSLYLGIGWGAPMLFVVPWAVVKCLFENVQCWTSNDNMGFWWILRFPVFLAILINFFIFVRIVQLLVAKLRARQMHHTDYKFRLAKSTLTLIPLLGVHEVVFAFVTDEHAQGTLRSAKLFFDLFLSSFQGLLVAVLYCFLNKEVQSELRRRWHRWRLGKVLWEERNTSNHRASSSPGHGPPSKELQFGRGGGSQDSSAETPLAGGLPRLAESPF

Structure (SMILES) | Kb
CC(C)CC(Nc1cnc(C(=O)NCCC(=O)O)cn1)c1ccc(-c2ccc(C(F)(F)F)cc2)cc1 (single isomer, unassigned; isomer 2) [Example 1.18, 3-(5-(3-methyl-1-(4′-(trifluoromethyl)biphenyl-4-yl)butylamino)pyrazine-2-carboxamido)propanoic acid, Isomer 2] | 120 nM
CC(C)CC(Nc1ccc(-c2ccc(C(F)(F)F)cc2)cc1)c1ccc(C(=O)NCCC(=O)O)cn1 (single isomer, unassigned; isomer 2) [Example 2.6, 3-(6-(3-methyl-1-(4′-(trifluoromethyl)biphenyl-4-ylamino)butyl)nicotinamido)propanoic acid, Isomer 2] | 500 nM
CCCC(Nc1cnc(-c2ccc(C(F)(F)F)cc2)nc1)c1ccc(C(=O)NCCC(=O)O)cc1 (single isomer, unassigned; isomer 2) [Example 2.17, 3-(4-(1-(2-(4-(trifluoromethyl)phenyl)pyrimidin-5-ylamino)butyl)benzamido)propanoic acid, Isomer 2] | 420 nM
CC(C)C[C@@H](Nc1ccc(C(=O)NCCC(=O)O)cn1)c1ccc(-c2ccc(C(F)(F)F)cc2)cc1 [Example 1.1, (R)-3-(6-(3-methyl-1-(4′-(trifluoromethyl)biphenyl-4-yl)butylamino)nicotinamido)propanoic acid] | 1700 nM
CC(C)C[C@H](Nc1ccc(C(=O)NCCC(=O)O)cn1)c1ccc(-c2ccc(C(F)(F)F)cc2)cc1 [Example 1.3, (−)-(S)-3-(6-(3-methyl-1-(4′-(trifluoromethyl)biphenyl-4-yl)butylamino)nicotinamido)propanoic acid] | 73 nM
CC(C)C[C@H](Nc1ccc(C(=O)NCCC(=O)O)cn1)c1ccc(-c2ccc(C(F)(F)F)cn2)cc1 [Example 4.1, (S)—N-({6-[(3-methyl-1-{4-[5-(trifluoromethyl)pyridin-2-yl]phenyl}butyl)amino]pyridin-3-yl}carbonyl)-beta-alanine] | 67 nM
CCC[C@H](Nc1cnc(-c2ccc(C(F)(F)F)cc2)cn1)c1ccc(C(=O)NCCC(=O)O)cc1 [Example 4.4, (S)-3-(4-(1-((5-(4-(trifluoromethyl)phenyl)pyrazin-2-yl)amino)butyl)benzamido)propanoic acid] | 66 nM
CCC[C@@H](Nc1cnc(-c2ccc(C(F)(F)F)cc2)cn1)c1ccc(C(=O)NCCC(=O)O)cc1 [Example 4.5, (R)-3-(4-(1-((5-(4-(trifluoromethyl)phenyl)pyrazin-2-yl)amino)butyl)benzamido)propanoic acid] | 820 nM
O=C(O)CCNC(=O)c1ccc(NC(CC2CC2)c2ccc(-c3ccc(C(F)(F)F)cc3)cc2)nc1 (stereo not drawn) [Example 4.14, 3-(6-(2-cyclopropyl-1-(4′-(trifluoromethyl)biphenyl-4-yl)ethylamino)nicotinamido)propanoic acid] | 110 nM
Cc1cc(C(CC(C)C)Nc2ccc(C(=O)NCCC(=O)O)cn2)cnc1-c1ccc(C(F)(F)F)cc1 (stereo not drawn) [Example 4.15, 3-(6-(3-methyl-1-(5-methyl-6-(4-(trifluoromethyl)phenyl)pyridin-3-yl)butylamino)nicotinamido)propanoic acid] | 370 nM
CCCC(Nc1ncc(C(=O)NCCC(=O)O)cn1)c1ccc(-c2ccc(C(F)(F)F)cc2)cc1 (stereo not drawn) [Example 4.17, 3-(2-(1-(4′-(trifluoromethyl)biphenyl-4-yl)butylamino)pyrimidine-5-carboxamido)propanoic acid] | 340 nM
CCCC(Nc1ccc(-c2ccc(C(F)(F)F)cc2)nc1)c1ccc(C(=O)NCCC(=O)O)cc1 (stereo not drawn) [Example 4.18, 3-(4-(1-(6-(4-(trifluoromethyl)phenyl)pyridin-3-ylamino)butyl)benzamido)propanoic acid] | 60 nM

Continued, values first:

Kb | Structure (SMILES)
980 nM | CC(C)C[C@@H](Nc1ccc(C(=O)NCCC(=O)O)cn1)c1ccc(-c2ccc(C(F)(F)F)cc2)nc1 (single isomer, unassigned; isomer 2) [Example 4.21, 3-(6-(3-methyl-1-(6-(4-(trifluoromethyl)phenyl)pyridin-3-yl)butylamino)nicotinamido) propanoic acid, Isomer 2]
75 nM | CCCC(Nc1ccc(C(=O)NCCC(=O)O)cn1)c1ccc(-c2ccc(C(F)(F)F)cc2)c(OC)c1 (stereo not drawn) [Example 4.23, 3-(6-(1-(2-methoxy-4′-(trifluoromethyl)biphenyl-4-yl)butylamino)nicotinamido)propanoic acid]
88 nM | CCCC(Nc1ccc(C(=O)NCCC(=O)O)cn1)c1ccc(-c2ccc(C(F)(F)F)cc2)cc1OC (stereo not drawn) [Example 4.24, 3-(6-(1-(3-methoxy-4′-(trifluoromethyl)biphenyl-4-yl)butylamino)nicotinamido)propanoic acid]
94 nM | CCCC(Nc1ccc(C(=O)NCCC(=O)O)cn1)c1cnc(-c2ccc(OC(F)(F)F)cc2)nc1 (stereo not drawn) [Example 4.25, 3-(6-(1-(2-(4-(trifluoromethoxy)phenyl)pyrimidin-5-yl)butylamino)nicotinamido)propanoic acid]
56 nM | O=C(O)CCNC(=O)c1ccc(NC(c2cnc(-c3ccc(C(F)(F)F)cc3)nc2)C2CCCC2)nc1 (stereo not drawn) [Example 4.28, 3-(6-(cyclopentyl(2-(4-(trifluoromethyl)phenyl)pyrimidin-5-yl)methylamino)nicotinamido)propanoic acid]
55 nM | CC(C)CC(Nc1cnc(-c2ccc(C(F)(F)F)cc2)nc1)c1ccc(C(=O)NCCC(=O)O)cc1 (stereo not drawn) [Example 4.31, 3-(4-(3-methyl-1-(2-(4-(trifluoromethyl)phenyl)pyrimidin-5-ylamino)butyl)benzamido)propanoic acid]
2700 nM | CC(C)CC(Nc1cnc(-c2ccc(C(F)(F)F)cc2)nc1)c1ccc(C(=O)NCCC(=O)O)nc1 (stereo not drawn) [Example 4.32]
280 nM | COC1CC(C(Nc2ccc(C(=O)NCCC(=O)O)cn2)c2ccc(-c3ccc(C(F)(F)F)cc3)cc2)C1 (stereo not drawn) [Example 4.33, 3-(6-((3-methoxycyclobutyl)(4′-(trifluoromethyl)biphenyl-4-yl)methylamino)nicotinamido)propanoic acid]
120 nM | O=C(O)CCNC(=O)c1ccc(NC(c2ccc(-c3ccc(C(F)(F)F)cc3)cc2)C2CCCOC2)nc1 (stereo not drawn) [Example 4.34, 3-(6-((tetrahydro-2H-pyran-3-yl)(4′-(trifluoromethyl)biphenyl-4-yl)methylamino)nicotinamido)propanoic acid]

— US8809342B2, “Glucagon receptor modulators” (Pfizer Inc., priority 2010, dated 2014)
